Patent EP1175907A1, “REMEDIES” (Takara Shuzo Co, Ltd., priority 1999, dated 2000)

Columns and labels:
Type in all cases: cell-based, human
HL60 cells [1] = experiment: HGF in medium and cells of HL60 cells with or without TPA; settings: 10 nM TPA alone, 24 h
Protocol: HL60 cells (human promyelocytic leukemia cell line) cultured in an RPMI 1640 medium containing 10% fetal bovine serum were suspended in an RPMI 1640 medium containing 1% fetal bovine serum so as to have a concentration of 5 × 10^5 cells/ml, and added into each well of a 48-well cell culture plate in a volume of 500 µl each. There after, 10 nM TPA was added thereto, and each sample was further added, and the cells were then cultured for 24 hours. Also, the same steps were carried out for the group added with only the sample without adding TPA. The medium was collected, and the amount of HGF in the medium was determined by using the Quantikine Human Hepatocyte Growth Factor (HGF) ELISA Kit. Further, the cells were washed with PBS, and thereafter dissolved in 500 µl of a cytolytic buffer (50 mM HEPES, pH 7.4; 10 mM EDTA; 0.1% Triton X100; 1 mM PMSF; 1 µg/ml pepstatin A and 1 µg/ml leupeptin). Further, in order to completely dissolve the cells, the mixture was subjected to sonication treatment, and then centrifuged, to give a supernatant (cell extract). The amount of HGF in the cells was determined in the same manner as that of the concentration of HGF in the medium. 7-12SFd-F prepared in item (3) of Reference Example 2 was added so as to have a final concentration of 1, 10 or 100 µg/ml. As a negative control, distilled water was added in the same volume as that of the sample. Each experiment was carried out three times, and an average value was taken.

Hs68 cells = experiment: HGF in medium and cells of Hs68 cells with or without TPA; settings: 10 nM TPA alone
Protocol: Hs68 cells (human newborn foreskin fibroblasts: manufactured by DAINIPPON PHARMACEUTICAL CO., LTD., ATCC CRL-1635) cultured in a DMEM medium containing 10% fetal bovine serum were suspended in the DMEM medium containing 10% fetal bovine serum so as to have a concentration of 1 × 10^5 cells/ml, and added into each well of a 48-well cell culture plate in a volume of 500 µl each. The cells were cultured for 24 hours. Thereafter, the medium was exchanged for a DMEM medium containing 1% fetal bovine serum, and thereto were added 10 nM TPA and each sample. Also, the same steps were carried out for the group added with only the sample without adding TPA. The medium was collected, and the amount of HGF in the medium was determined by using Quantikine Human Hepatocyte Growth Factor (HGF) ELISA Kit. Further, the cells were washed with PBS, and thereafter dissolved in 500 µl of a cytolytic buffer (50 mM HEPES, pH 7.4; 10 mM EDTA; 0.1% Triton X100; 1 mM PMSF; 1 µg/ml pepstatin A and 1 µg/ml leupeptin). Further, in order to completely dissolve the cells, the mixture was subjected to sonication treatment, and then centrifuged, to give a supernatant (cell extract). The amount of HGF in the cell was determined in the same manner as that of the concentration of HGF in the medium. 7-12SFd-F prepared in item (3) of Reference Example 2 was added so as to have a final concentration of 0.1, 1, 10 or 100 µg/ml. As a negative control, distilled water was added in the same volume as that of the sample. Each experiment was carried out three times, and an average value was taken. In the TPA non-added group, a remarkable production of HGF could not be found. […] In addition, the increase in the amount of HGF when mRNA is increased as described above was very remarkable, as compared to the case where the amount of mRNA is small with no TPA treatment. It was clarified from the above that 7-12SFd-F remarkably promotes the freeing and production of HGF in a case where transcription of mRNA is promoted, so that a large amount of HGF is required.

HL60 cells [2] = experiment: HGF mRNA in HL60 cells (RT-PCR); settings: 10 nM TPA, at any time periods (4 to 10 hours)
Protocol: HL60 cells (human promyelocytic leukemia cell line) cultured in an RPMI 1640 medium containing 10% fetal bovine serum were suspended in an RPMI 1640 medium containing 1% fetal bovine serum so as to have a concentration of 5 × 10^5 cells/ml, and added into each well of a 6-well cell culture plate in a volume of 2 ml each. Thereafter, 10 nM TPA and 7-12SFd-F prepared in item (3) of Reference Example 2 were added each so as to have a final concentration of 100 µg/ml. Also, the same steps were carried out for the group added with only 7-12SFd-F without adding TPA. The cells were further cultured, and a whole RNA was extracted on Hours 4, 6, 8, and 10. In the extraction of the whole RNA, RNeasy Mini Kit (manufactured by QIAGEN) was used. RT-PCR was carried out entirely in the same manner as that in Example 14, except for changing the cycles for PCR to 32 cycles. After the reaction, the reaction mixture was subjected to electrophoresis on a 2% agarose gel and ethidium bromide staining, and the gel was observed under UV irradiation.

NHDF cells [3] = experiment: HGF in medium and cells of NHDF cells with or without TPA; settings: 10 nM TPA alone
NHDF cells [4] = experiment: HGF mRNA in NHDF cells (RT-PCR); settings: 10 nM TPA, at any time periods (4 to 10 hours)
Protocol: NHDF cells (normal human dermal fibroblasts) cultured in a DMEM medium containing 10% fetal bovine serum were suspended in the DMEM medium containing 10% fetal bovine serum so as to have a concentration of 2.5 × 10^5 cells/ml, and added into each well of a 6-well cell culture plate in a volume of 2 ml each. The cells were cultured at 37°C for 24 hours in the presence of 5% CO2. Thereafter, the medium was exchanged for a DMEM medium containing 1% fetal bovine serum, and thereto were added 10 nM tetradecanoylphorbol 13-acetate (TPA: manufactured by Gibco BRL) and 7-12SFd-F prepared in item (3) of Reference Example 2 each so as to have a final concentration of 100 µg/ml. Also, the same steps were carried out for the group added with only 7-12SFd-F without adding TPA. The cells were further cultured, and a whole RNA was extracted on Hours 4, 6, 8 and 10. In the extraction of the whole RNA, RNeasy Mini Kit (QIAGEN) was used. RT-PCR was carried out entirely in the same manner as that in Example 14, except for changing the cycles for PCR to 28 cycles. After the reaction, the reaction mixture was subjected to electrophoresis on a 2% agarose gel and ethidium bromide staining, and the gel was observed under UV irradiation.

Structure (SMILES): CCCCCCCCCCCCCC(=O)O[C@@H]1[C@@H](C)[C@@]2(O)[C@@H](C=C(CO)C[C@]3(O)C(=O)C(C)=C[C@@H]23)[C@@H]2C(C)(C)[C@]12OC(C)=O [TPA, 12-O-tetradecanoylphorbol 13-acetate]
- Amount of HGF in Cells (HL60 cells [1]): 83.37 pg/Well
- Amount of HGF in Medium (HL60 cells [1]): 261.60 pg/Well
- Total Amount of HGF (HL60 cells [1]): 344.97 pg/Well
- Amount of HGF in Cells (Hs68 cells): 155.65 pg/Well
- Amount of HGF in Medium (Hs68 cells): 65.54 pg/Well
- Total Amount of HGF (Hs68 cells): 221.19 pg/Well
- amount of HGF mRNA (HL60 cells [2]): remarkably increased
- Amount of HGF in Cells (NHDF cells [3]): 0.24 ng/Well
- Amount of HGF in Medium (NHDF cells [3]): 0.39 ng/Well
- Total Amount of HGF (NHDF cells [3]): 0.63 ng/Well
- amount of HGF mRNA (NHDF cells [4]): remarkably increased
